Results reported in US7632816B2, “Treatment of Alzheimer amyloid deposition” (New York University, priority 2003, dated 2009).
“Also recorded” adds a separate entry of the source. Where two headings read alike, the source gives them in different places. Square brackets hold non-standard residues; d marks the D form. Peptide text beside a SMILES is read from it.

What was measured:
[1] = biological target: T1, apoE4 (Homo sapiens, UniProt P02649, C130R); test: Thioflavin-T aggregation inhibition: apoE4-promoted Aβ1-42 fibril formation; assay type: biochemical
T1 construct: made in house; host or cells: primary forebrain astrocytes of GFAP-human apoE4 transgenic mice
Procedure: (§1) Recombinant apoE3 and apoE4 were purchased from Calbiochem Corp. (San Diego, Calif.). Lipidated apoE3 and apoE4 complexes were prepared from primary cultures of astrocytes derived from Tg mice in which human apoE3 or apoE4 were expressed under the control of the astrocyte-specific glial fibrillary acidic protein (GFAP) promoter as described previously (Fagan et al., “Unique Lipoproteins Secreted by Primary Astrocytes from Wild Type, ApoE (−/−), and Human ApoE Transgenic Mice,” J. Biol. Chem. 274:30001-30007 (1999); DeMattos et al., “Purification and Characterization of Astrocyte-secreted Apolipoprotein E and J-Containing Lipoproteins from Wild-type and Human ApoE Transgenic Mice,” Neurochemistry International 39:415-425 (2001); Sun et al., “Glial Fibrillary Acidic Protein-apolipoprotein E (apoE) Transgenic Mice: Astrocyte-specific Expression and Differing Biological Effects of Astrocyte-secreted ApoE3 and ApoE4 Lipoproteins,” J. Neurosci. 18:3261-3272 (1998); which are hereby incorporated by reference in their entirety). […] The purity of the apoE preparation was assessed by SDS-PAGE.
(§2) Aβ1-40 and Aβ1-42 were studied for comparison. […] Samples containing 15 μg of incubated peptides were taken at indicated intervals and fluorescence was measured as previously described in a Perkin-Elmer LS-50B fluorescence spectrophotometer (Perkin Elmer Instruments, Shelton, Conn.) (Wisniewski et al., “Acceleration of Alzheimer's Fibril Formation by Apolipoprotein E in vitro,” Am. J. Pathol. 145:1030-1035 (1994); Golabek et al., “The Interaction Between Apolipoprotein E and Alzheimer's Amyloid β-peptide is Dependent on β-peptide Conformation,” J. Biol. Chem. 271:10602-10606 (1996); which are hereby incorporated by reference in their entirety). […] Differences in amount of fibrils formed by the different peptides were evaluated by means of a repeated measures ANOVA, followed by a Tukey HSD post-hoc test using Statistica (version 6.1) (StatSoft Inc., Tulsa, Okla.). […]

[2] = biological target: T2, Aβ1-42 (Homo sapiens, UniProt P05067); test: Thioflavin-T assay: peptide alone added to Aβ1-42 (no apoE); assay type: biochemical; details: same concentration of Aβ12-28P
T2 construct: made in house; host or cells: chemical peptide synthesis

[3] = Thioflavin-T assay of the peptides' own amyloid fibril formation; assay type: physicochemical; details: 100 μmol/L peptide, 37° C., up to 10 days
Procedure: All peptides were HFIP treated and reconstituted in 100 mM Tris buffer (pH 7.4) to obtain a 100 μmol/L concentration. […] Peptides were incubated over a period of 10 days at 37° C. Samples containing 15 μg of incubated peptides were taken at indicated intervals and fluorescence was measured as previously described in a Perkin-Elmer LS-50B fluorescence spectrophotometer (Perkin Elmer Instruments, Shelton, Conn.) (Wisniewski et al., “Acceleration of Alzheimer's Fibril Formation by Apolipoprotein E in vitro,” Am. J. Pathol. 145:1030-1035 (1994); Golabek et al., “The Interaction Between Apolipoprotein E and Alzheimer's Amyloid β-peptide is Dependent on β-peptide Conformation,” J. Biol. Chem. 271:10602-10606 (1996); which are hereby incorporated by reference in their entirety). The mean±standard deviation (“SD”) for three separate experiments was plotted in FIG. 1. Differences in amount of fibrils formed by the different peptides were evaluated by means of a repeated measures ANOVA, followed by a Tukey HSD post-hoc test using Statistica (version 6.1) (StatSoft Inc., Tulsa, Okla.).

[4] = biological target: T3, apoE3 (Homo sapiens, UniProt P02649); test: Thioflavin-T aggregation inhibition: apoE3-promoted Aβ1-42 fibril formation; assay type: biochemical; details: for relative reduction in fluorescence: apoE3 preincubated with Aβ12-28P, then added to Aβ1-42
T3 construct: made in house; host or cells: primary forebrain astrocytes of GFAP-human apoE3 transgenic mice
Procedure: as §1, §2

[5] = tested on: Aβ1-42; test: Aβ1-42 toxicity in SK-N-SH cells with peptide added without apoE, MTT assay; assay type: cell-based, human
Procedure: All experiments were run in triplicate. The results from cell culture neurotoxicity studies were evaluated by one-way analysis of variance, followed by a Dunnett's test as a post hoc analysis.

T1 sequence (P02649 19-317 C130R): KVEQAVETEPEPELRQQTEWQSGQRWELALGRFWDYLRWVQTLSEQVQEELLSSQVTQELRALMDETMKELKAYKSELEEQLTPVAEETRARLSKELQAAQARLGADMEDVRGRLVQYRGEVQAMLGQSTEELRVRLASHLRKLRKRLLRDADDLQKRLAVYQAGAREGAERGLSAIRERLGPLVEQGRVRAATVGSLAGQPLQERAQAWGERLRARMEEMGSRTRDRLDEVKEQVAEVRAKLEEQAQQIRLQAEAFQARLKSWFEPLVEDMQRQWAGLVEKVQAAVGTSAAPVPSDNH
T3 sequence (P02649 19-317): as the sequence (P02649 19-317 C130R) above, with R112C counted along it
T2 sequence (P05067 672-713): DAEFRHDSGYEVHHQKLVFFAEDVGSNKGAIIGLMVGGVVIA

**Q.** Which “relative reduction in fluorescence” value [1] does the source give for CC(=O)N[C@@H](C(=O)N[C@H](Cc1c[nH]cn1)C(=O)N[C@H](Cc1c[nH]cn1)C(=O)N[C@H](CCC(N)=O)C(=O)N[C@H](CCCCN)C(=O)N[C@H](CC(C)C)C(=O)N1CCC[C@@H]1C(=O)N[C@H](Cc1ccccc1)C(=O)N[C@H](Cc1ccccc1)C(=O)N[C@H](C)C(=O)N[C@H](CCC(=O)O)C(=O)N[C@H](CC(=O)O)C(=O)N[C@@H](C(=O)NCC(=O)N[C@H](CO)C(=O)N[C@H](CC(N)=O)C(=O)N[C@H](CCCCN)C(N)=O)C(C)C)C(C)C [Aβ12-28P] (Ac-[dV][dH][dH][dQ][dK][dL][dP][dF][dF][dA][dE][dD][dV]G[dS][dN][dK]-NH2) here?
**A.** Its value is 25.3%.

**Q.** And the “relative reduction in fluorescence” value ([1]; apoE4 preincubated with Aβ12-28P, then added to Aβ1-42, day six)?
**A.** The value was 52.3%.

**Q.** What about the “chaperoning effect of apoE4 on Aβ1-42 fibril formation” value ([1]; apoE4 preincubated with equimolar Aβ12-28P, p<0.01) of the same compound?
**A.** Its value is “significantly reduced”.

**Q.** What about the “effect of peptide alone on Aβ1-42 fibrillogenesis” value [2] of the same compound?
**A.** Its value is “did not have any significant effect”.

**Q.** And the “fibril formation (Thioflavin-T fluorescence)” value [3]?
**A.** The value was “did not form any fibrils; also recorded: non-fibrillogenic; also recorded: No fibrils were formed”.

**Q.** What about the “relative reduction in fluorescence” value ([4]; after 24 h of incubation) of the same compound?
**A.** Its value is 14.5%.

**Q.** And the “relative reduction in fluorescence” value ([4]; day six)?
**A.** The value was 48.3%.

**Q.** What about the “chaperoning effect of apoE3 on Aβ1-42 fibril formation” value ([4]; apoE3 preincubated with equimolar Aβ12-28P, p<0.05) of the same compound?
**A.** The value was “significantly reduced”.

**Q.** And the “cell viability, Aβ1-42 incubated with peptide” value ([5]; 10 μmol/L Aβ1-42 with 10 μmol/L peptide)?
**A.** The value was “Much more striking improvement in cell viability”.

**Q.** What about the “cell viability, Aβ1-42 incubated with peptide without apoE” value ([5]; Aβ1-42 100 μmol/L, peptide 0.5 μmol/L, six days) of the same compound?
**A.** The value was “slightly increased cell viability”.
